Laboratory results from the NIST ThermoML archive (doi:10.1007/s10765-013-1404-4).
Numbers after ± are expanded uncertainties.

Tests used:
[1] = Crystal; DTA
[2] = Molar enthalpy of transition or fusion; settings: Crystal; DSC

Structure (SMILES) | Normal melting temperature [1] | Molar enthalpy of transition or fusion [2]
O=[N+]([O-])c1ccccc1Nc1ccccc1 [2-nitrodiphenylamine] | 74.79 ± 0.41 °C | 6.25 ± 0.454 kcal/mol
CCN(N=O)c1ccc([N+](=O)[O-])cc1 [N-nitroso-N-ethyl-4-nitroaniline] | 118.60 ± 0.41 °C | 7.45 ± 0.454 kcal/mol
CCN(C(=O)N(CC)c1ccccc1)c1ccccc1 [1,3-diethyl-1,3-diphenylurea] | 71.87 ± 0.41 °C | 8.02 ± 0.454 kcal/mol
O=[N+]([O-])c1ccccc1Nc1ccccc1[N+](=O)[O-] [bis(2-nitrophenyl)amine] | 172.30 ± 0.41 °C | 4.39 ± 0.454 kcal/mol
c1ccc(Nc2ccccc2)cc1 [diphenylamine] | 53.50 ± 0.41 °C | 4.7 ± 0.454 kcal/mol
